Measurements: PubChem BioAssay (NCI)
Several values for one entry are separate records, joined by “and”; a condition that tells them apart may be missing. Equal values may be shown once.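 Method: 48-hour compound exposure of cells in 96-well plates, five concentrations, linear interpolation of endpoints. GI50 marks 50% less growth. TGI denotes the concentration required for complete inhibition of growth.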

Columns and labels:
Test in all cases: NCI-60 cell line screen, 48 h
MALME-3M melanoma = system: MALME-3M melanoma
MDA-MB-435 = system: MDA-MB-435
ACHN renal = system: ACHN renal
NCI-H226 lung = system: NCI-H226 lung
A498 renal = system: A498 renal
OVCAR-4 ovarian = system: OVCAR-4 ovarian
SK-MEL-28 melanoma = system: SK-MEL-28 melanoma
UO-31 renal = system: UO-31 renal
OVCAR-8 ovarian = system: OVCAR-8 ovarian
MCF7 breast = system: MCF7 breast

SMILES | GI50 (MALME-3M melanoma) [µM] | TGI (MALME-3M melanoma) | GI50 (MDA-MB-435) [µM] | TGI (MDA-MB-435) [µM] | GI50 (ACHN renal) [µM] | TGI (ACHN renal) | GI50 (NCI-H226 lung) [µM] | TGI (NCI-H226 lung) [µM] | GI50 (A498 renal) [µM] | TGI (A498 renal) [µM] | GI50 (OVCAR-4 ovarian) [µM] | TGI (OVCAR-4 ovarian) [µM] | GI50 (SK-MEL-28 melanoma) [µM] | TGI (SK-MEL-28 melanoma) | GI50 (UO-31 renal) [µM] | TGI (UO-31 renal) [µM] | GI50 (OVCAR-8 ovarian) [µM] | TGI (OVCAR-8 ovarian) | GI50 (MCF7 breast) [µM] | TGI (MCF7 breast) [µM]
COc1cc(/C=C/C(=O)c2cccc(Nc3nc(Nc4ccccc4)nc(Nc4ccccc4)n3)c2)cc(OC)c1OC | 18.2 | 79.3 µM | 7.67 | > 73.4 | 24.1 | > 100 µM | 17.2 | > 81 | 7.47 | > 49.9 | 33.9 | > 100 | 4.02 | 19.6 µM | 5.15 | > 100 | 0.988 | > 100 µM | 0.588 | > 54.1
CC1CCC(NC(=O)N(CCCl)N=O)CC1 (stereo unspecified) | 26 | 51.5 µM and 98.1 µM |  | 65.9 | 31.6 | 91.7 µM and 103 µM | 36.1 | 150 |  | 124 |  | 61.1 | 18.8 | 35.1 µM and 93.1 µM | 61.2 | 92 | 20 | 47.3 µM and 120 µM |  | 110
Cc1cccc(C)c1NC(=O)C(C#N)C1=C(Cl)C(=O)c2ccccc2C1=O (stereo unspecified) |  | 30.4 µM |  | 34.3 |  | 28.8 µM |  | 17.4 |  | 29.3 |  | 30.3 |  | 38.1 µM |  | 26.6 |  | 48.5 µM |  | 46.2
COc1c(C)c2c(c(O)c1C/C=C(\C)CCC(=O)O)C(=O)OC2 | 0.714 | > 100 µM | 0.32 | > 100 | 0.457 | > 100 µM | 2.58 | > 100 | 0.42 | > 100 | 0.776 | > 100 | 0.38 | > 100 µM | 0.472 | > 100 | 0.443 | > 100 µM | 0.18 | > 100
